Results on 2 substances are retold here after US11857601B2, “Pharmaceutical composition for cancer treatment comprising fusion protein including IL-2 protein and CD80 protein and anticancer drug” (GI INNOVATION, INC., priority 2020, dated 2024).

The test system of one data set is 4T1 cells. Nature of the data set: mGI-101 and Abemaciclib in 4T1 allotransplanted tumor model. Format: in vivo, BALB/c mice. The settings on record: 11 mice per group. The protocol:
4T1 cells were purchased from ATCC (USA) and cultured in RPMI1640 medium (Gibco) containing 10% FBS (Gibco) and 1% antibiotic/antifungal agent (Gibco). The cultured cells were harvested using trypsin (Gibco) and then suspended in PBS. In order to establish an allotransplanted tumor model, 1×10^5 of 4T1 cells were subcutaneously injected into the back of BALB/c female mice (8-week-old).
A certain period of time after cell inoculation of the tumor grafts of the mice, the tumor volume was measured for animals with no abnormalities in the health condition of the animals, and the mice were randomly selected and assigned, each group including 11 mice.
The death of the mouse, the type of general symptoms, the date of onset, and the severity of symptoms were observed once a day during the test period, and recorded for each subject.
The tumor volume before administration of each subject was set as the value measured at the time of grouping, and the anti-tumor efficacy was evaluated as compared with the vehicle control.
All statistical calculations were performed using Prism 8.0 (Graph Pad Software Inc, USA). The comparison of tumor volume measurements was made through two-way analysis of variance followed by Tukey's multiple comparison test. A p value of less than 0.05 was considered significant.

A further data set deals with MC38. The data set can be described thus: mGI101 and anti-PD-1 antibody in MC38 allotransplanted tumor model. Format: in vivo, C57BL/6 mice. The protocol:
Rodent-derived colorectal cancer cells, MC38, were purchased from Kerafast (USA) and used for the test. MC38 cells were cultured in RPMI1640 medium (Gibco) containing 10% fetal bovine serum (Gibco) and 1% antibiotic/antifungal agent (Gibco). The cultured cells were harvested using trypsin and then suspended in PBS. In order to establish an allotransplanted tumor model, 1×10^6 MC38 cells were subcutaneously injected into the right flank of C57BL/6 female mice (7-week-old).
The mice were randomly assigned based on tumor volume (30 mm^3), each group including 5 mice. The tumor grafts were identified about day 2 after cell inoculation.
Clinical symptoms such as a disease and a behavioral change were observed once a day during the test period, and deceased animals were identified. At the end of the test period, the animals were sacrificed. The size of the MC38 solid cancer was measured using a tumor 3D scanner (TM900, Peria, Belgium). […] The anti-tumor efficacy was evaluated as compared with the vehicle control. All statistical calculations were performed using Prism 8.0 (Graph Pad Software Inc, USA). The comparison of tumor volume measurements was made through one-way analysis of variance (at the end of this test) followed by Bonferroni's multiple comparison test. A p value of less than 0.05 was considered significant.

Data set [1] relates to CD8+ T cells and NK cells. Nature of the data set: Proliferation of CD8+ T cells and NK cells in mouse spleen. Format: in vivo, C57BL/6 mice. Conditions: 40.5 μg i.p., spleen five days after injection; compared with GI101w. The protocol:
7-week-old C57BL/6 mice purchased from Orient Bio (Korea) were divided into 3 groups, each group including 3 mice, and PBS, GI101, or GI101w was injected intraperitoneally thereinto. Here, GI101 and GI101w were respectively prepared to be at 40.5 μg in 200 μl of PBS, and injected intraperitoneally thereinto. Five days after the injection, the spleens were removed from the mice of each group. The cells were isolated therefrom, and the total number of cells was measured using a hematocytometer. Splenocytes were examined for proportions of CD8+ T cells and NK cells therein, with FACS analysis using staining with APC-CD3ε antibody (Biolegend; 145-2C11), PE-NK1.1 antibody (Biolegend; PK136), and Pacific blue-CD8α antibody (BD; 53-6.7). As such, the numbers of CD8+ T cells and NK cells present in the spleen were calculated.

Another data set addresses T1, Human CTLA-4 (Homo sapiens, UniProt P16410).
T1 construct: purchased Sino Biological 11159-H08H
The data set can be described thus: Binding ability to CTLA-4 (Octet RED 384). As to the method: In order to identify the binding affinity between the fusion protein and its ligand, the binding affinity was measured using Octet RED 384.
AR2G biosensor (Amine Reactive 2nd gen, ForteBio, Cat: 18-5092) was previously hydrated with 200 μl of distilled water in a 96-well microplate (GreinerBio-one, Cat: 655209). A ligand (CTLA-4, Human CTLA-4/CD152, His tag, Sino Biological, Cat: 11159-H08H) to be attached to the AR2G biosensor was diluted with 10 mM acetate buffer (pH 5, AR2G reagent Kit, ForteBio, Cat: 18-5095) to a concentration of 5 μg/ml. […] Activation buffer was prepared by mixing 20 mM EDC and 10 mM s-NHS (AR2G reagent Kit, ForteBio, Cat: 18-5095) in distilled water. 80 μl of each reagent was placed in a 384-well microplate (GreinerBio-one, Cat: 781209) and the program was set up.
Binding kinetics measurements were performed using the Octet RED 384 instrument (ForteBio, Pall Life Science) with agitation at 30° C. and 1,000 rpm. The binding ability for CTLA-4 was measured using the Amine Reactive 2 generation (AR2G) biosensor chip, and the binding ability for PD-L1 was measured using the Nickel charged Tris-NTA (Ni-NTA) biosensor chip. The AR2G biosensor chip was activated with a combination of 400 mM EDC and 100 mM sulfo-NHS. […]
On the technique in general: BLI is a label-free optical method that tracks binding on a fibre tip over time.

T1 sequence (P16410 36-223): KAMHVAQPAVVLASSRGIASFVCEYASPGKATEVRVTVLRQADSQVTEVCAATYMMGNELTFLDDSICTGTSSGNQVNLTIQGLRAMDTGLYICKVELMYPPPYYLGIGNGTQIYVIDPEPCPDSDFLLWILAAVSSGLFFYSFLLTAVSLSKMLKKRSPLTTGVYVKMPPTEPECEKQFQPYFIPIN

As to “mGI101: fusion protein: mouse CD80, Ig hinge, Fc domain, linker, IL-2 variant (2M) (R38A, F42A); SEQ ID NO: 15”, in the data set on 4T1 cells, the “number of mice with tumor growth inhibition rate of 30% or more” value is listed as 3 mice, the “number of mice with tumor growth inhibition rate of 50% or more” value came out at 1 mice and the “number of mice with tumor growth inhibition rate of 80% or more” value is “no mouse”. In the data set on MC38 (16 days, mGI101 6 mpk alone, anti-PD-1 5 mpk, combination mGI101 0.6 mpk + anti-PD-1 5 mpk, vs control), the “anticancer effect / anti-tumor efficacy” value is “anticancer effect was also shown”. In addition, in the data set on MC38 (mGI101 6 mpk alone (compared with anti-PD-1 group), anti-PD-1 5 mpk, combination 0.6 mpk + 5 mpk), the individual tumor sizes entry was “more excellent tumor growth inhibitory effect”. Also, in the data set on MC38 (mGI101 alone and in combination with anti-PD-1 antibody, i.p.), the “health state of test animals after administration” value is on record as “healthy state without signs of pathological abnormalities”.
Consider “GI101: fusion protein: human CD80 fragment, Ig hinge, Fc domain, linker, IL-2 variant (2M) (R38A, F42A); SEQ ID NO: 9”, for which the “proliferation of CD8+ T cells and NK cells in vivo” value in data set [1] is listed as “activated proliferation”. Further, in the data set with Human CTLA-4, the “binding ability for CTLA-4” value is on record as “high binding ability”.
